Entries after “also recorded” stand apart in the source; their conditions may differ.
Key:
[1] = tested on: HL60 cells and K562 cells; assay: Leukemia cell growth comparison, cell count by trypan blue; assay type: cell-based; conditions: 6.2 μM, 48 hours; for number of cells in leukemia cell lines: HL60 and K562
Experimental: An acute myeloid leukemia cell line HL60, and a chronic myeloid leukemia cell line, K562 cells were treated with 6.2 μM of cholesterol, 7α-hydroxycholesterol, and 27-hydroxycholesterol for 48 hours and then strained with trypan blue, and then the cell count was confirmed.

[2] = tested on: hematopoietic stem and progenitor cells (HSPC); assay type: cell-based, mouse
Experimental: The bone marrow was extracted from the mouse tibia and femur using an FACS staining buffer (phosphate-buffered saline, 2% FBS, penicillin/streptomycin), and then bone marrow cells were extracted by lysing red blood cells using an ACK lysis buffer and treated with 0.62 μM or 6.2 μM 27-hydroxycholesterol for 24 or 48 hours. After treatment, antibodies were attached and the cells were analyzed using FACSCanto2 equipment. As a result, the effect of 27-hydroxycholesterol on decreased hematopoietic stem and progenitor cells (HSPC) was confirmed, and illustrated in FIGS. 1 and 11 [Con: untreated mouse bone marrow cells, Chol: mouse bone marrow cells treated with cholesterol, 27HC: mouse bone marrow cells treated with 27-hydroxycholesterol].

[3] = tested on: hematopoietic stem and progenitor cells (HSPC); assay: Reactive oxygen species (DCFDA staining, FACS) in mouse bone marrow cells; assay type: cell-based
Experimental: (§1) Bone marrow cells were extracted from the mouse tibia and femur and treated with 6.2 μM of 27-hydroxycholesterol for 48 hours. In order to confirm apoptosis, the cells treated with 27-hydroxycholesterol were collected, the cells were dissolved in a 1× Annexin binding buffer, added with Annexin V and 7AAD, and analyzed using FACScanto2 equipment, and in order to confirm reactive oxygen species, the cells were dissolved in an FACS staining buffer, added with DCFDA, stained at 37° C. for 30 minutes, and analyzed using FACScanto2 equipment. As a result, an effect of 27-hydroxycholesterol on increased apoptosis and reactive oxygen species (ROS) in hematopoietic stem and progenitor cells (HSPC) was confirmed and illustrated in FIG. 2 [Con or Ctrl: mouse bone marrow cells untreated, Chol: mouse bone marrow cells treated with cholesterol, 27HC: mouse bone marrow cells treated with 27-hydroxycholesterol].

[4] = tested on: ER stress response pathway; assay: Western blot of ER stress proteins (pIRE1α, IRE1α, PERK, ATF4, elF2α); assay type: cell-based
[5] = tested on: hematopoietic stem and progenitor cells (HSPC); assay: Apoptosis (Annexin V / 7AAD, FACS) in mouse bone marrow cells; assay type: cell-based; conditions: 6.2 μM, 48 hours, compared to control cells
Experimental: as §1

[6] = tested on: myeloid leukemia cells (HL60, KG1a, K562 cells); assay: Differentiation marker CD11b staining in leukemia cell lines; assay type: cell-based; conditions: compared to control cells
Experimental: (§2) Next, the apoptosis and the ROS proportions were analyzed through DCFDA staining. In addition, to confirm the effect of 27-Hydroxycholesterol on the differentiation of leukemia cell lines, a differentiation marker, CD11b was stained and analyzed using FACScanto 2 equipment. As a result, it was confirmed that the ROS proportion was high in the leukemia cell line treated with 27-hydroxycholesterol, which was illustrated in FIG. 4 [Con: untreated leukemia cell line, Chol: leukemia cell line treated with cholesterol, 27HC: leukemia cell line treated with 27-hydroxycholesterol].

[7] = tested on: myeloid leukemia cells (HL60, KG1a, K562 cells); assay: Apoptosis (Annexin V / 7AAD, FACS) in leukemia cell lines; assay type: cell-based; conditions: 6.2 μM, 48 hours, compared to control cells
Experimental: (§3) Acute myeloid leukemia cell lines HL60 and KG1 α, and chronic myeloid leukemia cell line, K562 cells were treated with 6.2 μM of 27-hydroxycholesterol for 48 hours and then strained with trypan blue, and then the cell count was confirmed. In addition, the cells were added with Annexin V and 7AAD, and the apoptosis was analyzed using FACScanto2 equipment. As a result, it was confirmed that compared to untreated cells (Con) and a cholesterol-treated leukemia cell line (Chol), 27-hydroxycholesterol increased the apoptosis in a leukemia cell line (27HC) to reduce the number of cells, which was illustrated in FIG. 3 [Con: untreated leukemia cell line, Chol: leukemia cell line treated with cholesterol, 27HC: leukemia cell line treated with 27-hydroxycholesterol].

[8] = tested on: myeloid leukemia cells (HL60, KG1a, K562 cells); assay: ROS (DCFDA staining) in leukemia cell lines; assay type: cell-based; conditions: compared to control cells
Experimental: as §2

[9] = tested on: LKS cells and hematopoietic progenitor cells (HPC); assay: qRT-PCR gene expression in sorted LKS cells and hematopoietic progenitor cells; assay type: cell-based, mouse; conditions: 6.2 μM, 48 hours
Experimental: Bone marrow cells were extracted from the mouse tibia and femur and treated with 6.2 μM of 27-hydroxycholesterol for 48 hours. After treatment, the cells were added with PE-Cy5-CD3, PE-Cy5-CD4, PE-Cy5-CD8, PE-Cy5-CD19, PE-Cy5-B220, PE-Cy5-GR1, PE-Cy5-Ter119, PE-Sca1, APC-Add cKit, PE-Cy7-CD150, and APC-Cy7-CD48 antibodies, stained for 30 minutes at 4° C., and then LKS (Lin-Sca1^+cKit^+) and hematopoietic progenitor cells (Lin^−Sca1^+cKit^+CD48^+) were separated using FACSAria. Thereafter, RNA was extracted from the cells using an RNA extraction kit, and cDNA was synthesized from RNA using a cDNA synthesis kit. The synthesized cDNA was subjected to qRT-PCR using primers related to apoptosis and ER stress and SYBR-green. As a result, it was confirmed that gene expression related to apoptosis and ER stress was increased according to treatment of 27-hydroxycholesterol in LKS and hematopoietic progenitor cells, which were immature cells, compared to total bone marrow cells, as illustrated in FIG. 6.

[10] = tested on: myeloid leukemia cells (HL60, KG1a, and K562 cells); assay: Leukemia cell count by trypan blue; assay type: cell-based; conditions: 6.2 μM, 48 hours; negative control HEK293T cells
Experimental: as §3

hematopoietic stem cells = assay: Bone marrow transplantation of ex vivo treated donor CD45.1 bone marrow cells; assay type: in vivo, mouse
Experimental: Bone marrow cells were taken out ex vivo, treated with 6.2 μM of 27-hydroxycholesterol (27-HC), and then subjected to bone marrow transplantation.
Specifically, referring to FIG. 9A, BM cells were extracted from the tibia and femur of a donor CD45.1 mouse, and then treated with vehicle, 6.2 μM cholesterol, and 6.2 μM 27-hydroxycholesterol for 48 hours. Then, bone marrow transplantation was performed by mixing the bone marrow cells of the CD45.2 mouse in a 1:1 ratio and injecting the mixture into the caudal vein of a recipient CD45.2 mouse that had been irradiated with 4 Gy. One month later, blood was extracted from the veins of the recipient mouse that had received bone marrow transplantation, and the cell proportion of the donor mouse was analyzed. Blood was extracted from the mouse jugular vein and added in 10 mM EDTA to prevent blood coagulation, and added in an ACK lysis buffer to lyse red blood cells. It was confirmed that after attaching CD45.1-APC and CD45.2-FITC antibodies, donor mouse CD45.1 cells were analyzed using FACSCanto2 equipment, and 27-hydroxycholesterol suppressed the regeneration and proliferation of hematopoietic stem cells, as illustrated FIGS. 9A to 9E.

CC(C)CCC[C@@H](C)[C@H]1CC[C@H]2[C@@H]3[C@H](O)C=C4C[C@@H](O)CC[C@]4(C)[C@H]3CC[C@]12C [7α-hydroxycholesterol, reference compound]
effect on chronic myeloid leukemia cells [1]: no effect | number of cells in leukemia cell lines [1]: did not have a significant effect | effect on acute myeloid leukemia cell lines ([1]; relative to 27-hydroxycholesterol): weaker effect

CC(=O)N[C@@H](CS)C(=O)O [N-acetylcysteine, reference compound]
decreased proportions of LKS cells, HPC and HSC by 27-hydroxycholesterol, on treating NAC ([2]; 27-hydroxycholesterol plus antioxidant NAC, FIG. 2F): suppressed | ROS in LKS cells, HPC and HSC treated with 27-hydroxycholesterol, on treating NAC ([3]; 27-hydroxycholesterol plus antioxidant NAC, FIG. 2E): increased

C[C@@H](CO)CCC[C@@H](C)[C@H]1CC[C@H]2[C@@H]3CC=C4C[C@@H](O)CC[C@]4(C)[C@H]3CC[C@]12C [27-hydroxycholesterol]
ER stress (amount of ER stress protein) ([4]; HL60 cells, 48 hours): increased | ER stress response pathway ([4]; THP1 cells, FIG. 5A): increases | apoptosis in LKS cells, HPC and HSC [5]: increased | differentiation (CD11b+) of myeloid leukemia cells [6]: increased | apoptosis of myeloid leukemia cells [7]: increased | ROS proportion of myeloid leukemia cells [8]: increased and high | gene expression related to apoptosis and ER stress ([9]; LKS and HPC compared to total bone marrow cells): increased | expression of Bax gene related to apoptosis ([9]; LKS cells and HPC): increased | expression of Chop, Ire1α and Xbp1s genes related to ER stress ([9]; LKS cells and HPC): increased | expression of Era gene related to cancer cell growth ([9]; LKS cells and HPC): increased | cytotoxic effect (conclusion of Example 1) [2]: cytotoxic effect specifically on hematopoietic stem and progenitor cells | effect on LK, LKS, HPC, HSC, monocytes, neutrophils, B cells, T cells ([2]; 0.62 μM, 24 hours, FIG. 11B): no effect on all cells | number of LK cells, LKS cells, HPC and HSC ([2]; BM cells treated for 24 hours or 48 hours, FIG. 11A): decreased | proportions of LKS cells, hematopoietic progenitor cells and hematopoietic stem cells ([2]; BM cells treated with 27-hydroxycholesterol, FIG. 1A/1B): decreased | proportions of common myeloid, granulocytic macrophage, megakaryocytic erythroid and common lymphocytic progenitor cells ([2]; BM cells, FIG. 1C/1D): decreased | proportions of monocytes, neutrophils, B cells and T cells ([2]; BM cells, FIG. 1E/1F): no change | proportions of LKS cells, HPC and HSC ([2]; Example 2, 6.2 μM, 48 hours, compared to control cells, FIG. 2F): decreased | cKit+ cells and CD48+ cells ([2]; FIG. 11C): reduces | ROS in LKS cells, HPC and HSC ([3]; 6.2 μM, 48 hours, compared to control cells): increased | number of myeloid leukemia cells (cell count) [10]: reduce; also recorded: significantly decreased | proportions of donor monocytes, B cells and T cells in blood of recipient mouse (hematopoietic stem cells; 6.2 μM, 48 hours ex vivo, after transplantation, FIG. 9C): decreased | engraftment ability (donor CD45.1 cells) in bone marrow cells (hematopoietic stem cells; 6.2 μM, 48 hours ex vivo, after transplantation, FIG. 9D): decreased | proportions of donor LK cells, LKS cells, HPC and HSC in bone marrow cells of recipient mouse (hematopoietic stem cells; 6.2 μM, 48 hours ex vivo, after transplantation, FIG. 9E): decreased | engraftment ability (donor CD45.1 cells) in blood (hematopoietic stem cells; 6.2 μM, 48 hours ex vivo, one month after transplantation, FIG. 9B): decreased | regeneration and proliferation of hematopoietic stem cells (hematopoietic stem cells; donor BM cells treated ex vivo with 6.2 μM for 48 hours, then transplanted): suppressed | growth of leukemia cells (HL60 cells and K562 cells) ([1]; FIG. 8A/8B): inhibited; also recorded: minimal; also recorded: suppressed | number of cells in leukemia cell lines [1]: decreased
